{"source": "paper PMC4259467", "about": "“Molecular Cloning, Characterization and Positively Selected Sites of the Glutathione S-Transferase Family from Locusta migratoria” (PLoS ONE, 2014)", "assay_in_all_cases": "spectrophotometric GST assay, steady state", "assay_type_in_all_cases": "biochemical", "conditions_in_all_cases": "co-substrate GSH; pH and temperature not given; read-out: K m ^CDNB", "key": {"LmGSTD3": {"molecular_target": "T1, LmGSTD3 (Locusta migratoria, UniProt V9Q4H6)", "T1 construct": "gene GSTd3; full-length ORF in pET28a, E. coli BL21(DE3), His-tag Ni-NTA purified", "T1 sequence (V9Q4H6 1-222)": "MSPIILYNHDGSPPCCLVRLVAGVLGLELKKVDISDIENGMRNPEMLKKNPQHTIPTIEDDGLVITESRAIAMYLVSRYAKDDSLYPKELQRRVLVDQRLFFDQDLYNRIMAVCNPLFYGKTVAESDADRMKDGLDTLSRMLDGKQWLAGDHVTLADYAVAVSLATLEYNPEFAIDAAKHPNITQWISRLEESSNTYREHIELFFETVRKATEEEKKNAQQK", "excerpt": "spectrophotometric GST assay, steady state on LmGSTD3"}, "LmGSTD1": {"molecular_target": "T2, LmGSTD1 (Locusta migratoria, UniProt E7BTM5)", "T2 construct": "full-length ORF in pET28a, E. coli BL21(DE3), His-tag Ni-NTA purified", "T2 sequence (E7BTM5 1-218)": "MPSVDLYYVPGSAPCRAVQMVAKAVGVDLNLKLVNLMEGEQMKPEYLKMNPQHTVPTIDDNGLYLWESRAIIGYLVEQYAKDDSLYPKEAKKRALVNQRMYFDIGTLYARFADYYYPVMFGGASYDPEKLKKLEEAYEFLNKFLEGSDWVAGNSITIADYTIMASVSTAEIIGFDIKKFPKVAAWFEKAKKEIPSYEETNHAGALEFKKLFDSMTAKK", "excerpt": "spectrophotometric GST assay, steady state on LmGSTD1"}, "LmGSTS9": {"molecular_target": "T3, LmGSTS9 (Locusta migratoria, UniProt V9Q315)", "T3 construct": "gene GSTs9; full-length ORF in pET28a, E. coli BL21(DE3), His-tag Ni-NTA purified", "T3 sequence (V9Q315 1-204)": "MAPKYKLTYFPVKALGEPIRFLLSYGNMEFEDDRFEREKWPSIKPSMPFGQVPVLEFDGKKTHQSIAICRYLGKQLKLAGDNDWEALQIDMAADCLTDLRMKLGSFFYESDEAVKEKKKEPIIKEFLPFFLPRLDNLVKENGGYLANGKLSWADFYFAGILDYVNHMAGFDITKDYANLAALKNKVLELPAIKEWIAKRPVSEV", "excerpt": "spectrophotometric GST assay, steady state on LmGSTS9"}}, "data": [{"smiles": "O=[N+]([O-])c1ccc(Cl)c([N+](=O)[O-])c1", "note": "[CDNB]", "values": [{"measurement": "Km", "setting": "LmGSTD3", "result": "102 ± 10", "unit": "µM"}, {"measurement": "Km", "setting": "LmGSTD1", "result": "139 ± 8", "unit": "µM"}, {"measurement": "Km", "setting": "LmGSTS9", "result": "351 ± 26", "unit": "µM"}]}]}
